In patent US20250091989A1, “SMALL MOLECULE PROTEIN SYNTHESIS MODULATORS” (Interdict Bio, Inc., priority 2023, published 2025):

Legend:
KLE = test: Cell viability (CellTiter-Fluor), KLE; type: cell-based; details: Homo sapiens, 24-72 hrs
Experimental: (§1) Count and dispense 2,000-10,000 cells per well (100 μL volume) in black 96-well tissue culture microplate and let cells adhere overnight. Add compound dissolved in 100% DMSO to each well as needed and incubate cells in standard culture conditions for 24-72 hrs. Final DMSO concentration in each well should be 0.1-0.5%. At the desired time point, gently aspirate compound containing media and replace with PBS to wash. Repeat wash step for 2 total washes. Remove PBS and add 100 μL CellTiter-Fluor reagent (Promega) reagent to each well. Seal plate and incubate 1 hr at room temperature with orbital shaking. Analyze fluorescence using plate reader to quantify viable cells compared with vehicle (DMSO) control.

LS411N = test: Cell viability (CellTiter-Fluor), LS411N; type: cell-based; details: Homo sapiens, LS-411N, 24-72 hrs
Experimental: as §1

CCND1 = test: In vitro transcription-translation (IVTT) reporter assay, CCND1 test sequence; type: biochemical; details: HeLa S3 lysate, sfGFP/mCherry ratio, 2 hrs at 30° C.
Source text: (§2) All reporter constructs have been cloned into the pT7CFE1-CHis plasmid (ThermoFisher #88860) using Gibson assembly procedures (NEB #E2611L). The parental pT7CFE1-CHis plasmid contains an EMCV IRES at the 5′UTR for translation initiation, a multiple-cloning site (MCS) for gene insertion, an optional C-terminal His-epitope tag, and polyA sequence in the 3′UTR to regulate mRNA stability. All reporters are designed to be inserted at the MCS to include a red fluorescent protein (mCherry), P2A self-cleaving peptide which releases the preceding mCherry protein product, and a fusion open reading frame containing a 3×FLAG epitope, a peptide sequence of interest (TEST), and green fluorescent protein (sfGFP).
(§3) Construct Plasmid Preparation: All plasmids are isolated from MACH1 cells (ThermoFisher) grown overnight in ampicillin-containing luria broth, and purified using ZymoPure Express Plasmid Midiprep Kit (Zymo Research). Constructs are sequenced verified and diluted to a working concentration of 110 ng/μL.
(§4) HeLa S3 Lysate Preparation: HeLa S3 cell pellets are acquired from Ipracell/Ipratech (Belgium) and shipped as 4 mL frozen cell pellets on dry ice for storage at −80° C. until use. The procedure for lysate preparation is as follows. Prepare 1× Lysis Buffer, cold and stored on ice:
(§5) Each preparation takes 8 cell pellets (4 ml packed volume each, approximately 1.0×10^9 cells per pellet). Thaw cell pellets from −80° C. on ice for 90 mins. Lay pellets horizontally on top of the ice and rotate every 30 mins to ensure even thawing. Once thawed, add 4 mL of cold lysis buffer to each pellet, and using a serological pipet, gently pipet up and down to break up clumps. Incubate resuspended cells in ice for an additional 30 mins (plunged into ice). During 30 min incubation, rinse and RNase-zap (Ambion) glass dounces (use loose pestle “A”), gently dry and place on ice until needed. Prepare RNase-free Eppendorf tubes for spinning and for batch storage. Add batch labels to 1.5-1.7 mL RNase-free microcentrifuge tubes (labeling scheme below). Each batch will have an extra 1.5-1.7 mL RNase-free microcentrifuge tube for 40 μL of lysate, label the top of this tube (labeling scheme below). After 30 min incubation, transfer all 8 mL of cell pellet to dounce. Cell lysis is complete after douncing 100 times. Aliquot cell lysis into 1.5-1.7 mL temporary-microcentrifuge tubes. Place tubes in centrifuge with “fins” out, and spin at 1,200 xg for 5 mins. After the first spin use a 1 mL pipet to resuspend each tube and repeat spin. This acts as an additional lysis step, is more vigorous and increases lysate yield. During second spin get liquid N2 and a fresh conical tube on ice.
(§6) After spin is complete, transfer supernatant (lysate) from microcentrifuge tubes into the 50 mL conical tube and keep on ice. Repeat steps 10-14 for all other cell pellets until completed. Once all cell lysate has been transferred to the 50 mL conical tube pipet to mix so the solution is homogenous. Transfer 1 mL of lysate into batch-labeled microcentrifuge tubes and flash freeze in liquid nitrogen. Be sure to pipet up and down to mix throughout transfer step. Place all tubes in the […] for long-term storage.
(§7) In vitro transcription-translation assay setup: Each assay includes a master mix containing lysate and shared components, a 96-well plate containing compound titrations for testing, a 96-well DNA plate with reporter constructs to be tested, 96-well skirted PCR plates, and 96-well flat-bottom, black, fluorescent assay plates. […]

MYC = test: In vitro transcription-translation (IVTT) reporter assay, MYC test sequence; type: biochemical; details: HeLa S3 lysate, sfGFP/mCherry ratio, 2 hrs at 30° C.
Summary of the method: (§8)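 Coupled transcription-translation in HeLa S3 lysate with reporter plasmids encoding mCherry-P2A-3×FLAG-TEST-sfGFP behind an EMCV IRES. Compounds were half-log titrated (30 μM-0.1 μM in DMSO dilution plate) into master mix, then DNA was added. Reactions ran 2 hrs at 30° C, were PBS-quenched and read for fluorescence.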

HPAF-II = test: Cell viability (CellTiter-Fluor), HPAF-II; type: cell-based; details: Homo sapiens, 24-72 hrs
Experimental: as §1

HEK 293T = test: Cell viability (CellTiter-Fluor), HEK 293T; type: cell-based; details: Homo sapiens, 24-72 hrs
Experimental: as §1

NCI-H1915 = test: Cell viability (CellTiter-Fluor), NCI-H1915; type: cell-based; details: NCI-H1915, 24-72 hrs
Experimental: as §1

KRAS G12D = test: In vitro transcription-translation (IVTT) reporter assay, KRAS G12D test sequence; type: biochemical; details: HeLa S3 lysate, sfGFP/mCherry ratio, 2 hrs at 30° C.
Summary of the method: as §8

MCF7 = test: Cell viability (CellTiter-Fluor), MCF7; type: cell-based; details: Homo sapiens, MCF7, 24-72 hrs
Experimental: as §1

ALK = test: In vitro transcription-translation (IVTT) reporter assay, ALK test sequence; type: biochemical; details: HeLa S3 lysate, sfGFP/mCherry ratio, 2 hrs at 30° C.
Summary of the method: as §8

MS751 = test: Cell viability (CellTiter-Fluor), MS751; type: cell-based; details: MS751, 24-72 hrs
Experimental: as §1

T47D = test: Cell viability (CellTiter-Fluor), T47D; type: cell-based; details: Homo sapiens, 24-72 hrs
Experimental: as §1

KATO-III = test: Cell viability (CellTiter-Fluor), KATO-III; type: cell-based; details: Homo sapiens, 24-72 hrs
Experimental: as §1

HCC38 = test: Cell viability (CellTiter-Fluor), HCC38; type: cell-based; details: Homo sapiens, HCC38, 24-72 hrs
Experimental: as §1

BCL-2 = test: In vitro transcription-translation (IVTT) reporter assay, BCL-2 test sequence; type: biochemical; details: HeLa S3 lysate, sfGFP/mCherry ratio, 2 hrs at 30° C.
Source text: as §2, §3, §4, §5, §6, §7

MCL-1 = test: In vitro transcription-translation (IVTT) reporter assay, MCL-1 test sequence; type: biochemical; details: HeLa S3 lysate, sfGFP/mCherry ratio, 2 hrs at 30° C.
Source text: as §2, §3, §4, §5, §6, §7

COc1ccc(C[C@H]2NC[C@H](O)[C@H]2OC(=O)Cc2cnc[nH]2)cc1 [V0109, (2R,3S,4S)-4-hydroxy-2-[(4-methoxyphenyl)methyl]pyrrolidin-3-yl 2-(3H-imidazol-4-yl)acetate]
IC50 (KLE): 0.25 to 1 µM | IC50 (LS411N): 0.25 to 1 µM | IC50 (CCND1): < 10 µM | IC50 (MYC): < 10 µM | IC50 (HPAF-II): 0.25 to 1 µM | IC50 (HEK 293T): < 0.25 µM | IC50 (NCI-H1915): 0.25 to 1 µM | IC50 (KRAS G12D): < 10 µM | IC50 (MCF7): 0.25 to 1 µM | IC50 (ALK): < 10 µM

COc1ccc(C[C@H]2NC[C@H](O)[C@H]2OC(=O)CC2CC(F)(F)C2)cc1 [V187043, (2R,3S,4S)-4-hydroxy-2-[(4-methoxyphenyl)methyl]pyrrolidin-3-yl 2-(3,3-difluorocyclobutyl)acetate; trifluoroacetic acid]
IC50 (KLE): < 0.25 µM | IC50 (LS411N): < 0.25 µM | IC50 (MYC): < 10 µM | IC50 (HPAF-II): 0.25 to 1 µM | IC50 (HEK 293T): < 0.25 µM | IC50 (NCI-H1915): 0.25 to 1 µM | IC50 (KRAS G12D): < 10 µM | IC50 (MCF7): < 0.25 µM | IC50 (MS751): < 0.25 µM | IC50 (T47D): < 0.25 µM | IC50 (KATO-III): 0.25 to 1 µM | IC50 (HCC38): < 0.25 µM | IC50 (ALK): < 10 µM

COc1ccc(C[C@H]2NC[C@H](O)[C@H]2OC(=O)Cc2cscn2)cc1 [V187049]
IC50 (KLE): < 0.25 µM | IC50 (LS411N): < 0.25 µM | IC50 (CCND1): < 10 µM | IC50 (MYC): < 10 µM | IC50 (HPAF-II): < 0.25 µM | IC50 (HEK 293T): < 0.25 µM | IC50 (NCI-H1915): < 0.25 µM | IC50 (KRAS G12D): < 10 µM | IC50 (MCF7): < 0.25 µM | IC50 (MS751): < 0.25 µM | IC50 (T47D): < 0.25 µM | IC50 (KATO-III): < 0.25 µM | IC50 (HCC38): < 0.25 µM | IC50 (ALK): < 10 µM

COc1ccc(CC2NCC(O)C2OC(=O)CC2CC2(F)F)cc1 [V187061, 2R,3S,4S)-4-hydroxy-2-[(4-methoxyphenyl)methyl]pyrrolidin-3-yl 2-(2,2-difluorocyclopropyl)acetate]
IC50 (KLE): 0.25 to 1 µM | IC50 (LS411N): < 0.25 µM | IC50 (MYC): < 10 µM | IC50 (HPAF-II): 0.25 to 1 µM | IC50 (HEK 293T): < 0.25 µM | IC50 (NCI-H1915): 0.25 to 1 µM | IC50 (KRAS G12D): < 10 µM | IC50 (MCF7): 0.25 to 1 µM | IC50 (MS751): < 0.25 µM | IC50 (T47D): 0.25 to 1 µM | IC50 (KATO-III): 1 to 4 µM | IC50 (HCC38): 0.25 to 1 µM | IC50 (ALK): < 10 µM

COc1ccc(C[C@H]2NC[C@H](O)[C@H]2OC(C)=O)cc1Br [V187263]
IC50 (CCND1): 20 to 30 µM | IC50 (MYC): > 30 µM | IC50 (BCL-2): 20 to 30 µM | IC50 (MCL-1): 20 to 30 µM

CC(=O)O[C@@H]1[C@@H](O)CN[C@@H]1Cc1ccc(-c2cn(C)nn2)cc1 [V187748]
IC50 (CCND1): < 10 µM | IC50 (MYC): < 10 µM | IC50 (BCL-2): < 10 µM | IC50 (MCL-1): < 10 µM

CC(=O)O[C@@H]1[C@@H](O)CN[C@@H]1Cc1ccc(-c2cn(-c3cccnc3)nn2)cc1 [V187751]
IC50 (CCND1): < 10 µM | IC50 (MYC): < 10 µM | IC50 (BCL-2): < 10 µM | IC50 (MCL-1): < 10 µM

CC(=O)O[C@@H]1[C@@H](O)CN[C@@H]1Cc1ccc(-c2cn(C3CCOCC3)nn2)cc1 [V187838]
IC50 (CCND1): < 10 µM | IC50 (MYC): < 10 µM | IC50 (BCL-2): < 10 µM | IC50 (MCL-1): < 10 µM

CC(=O)O[C@@H]1[C@@H](O)CN[C@@H]1Cc1ccc(-c2cn(-c3ccc(Cl)cc3)nn2)cc1 [V187839]
IC50 (CCND1): < 10 µM | IC50 (MYC): < 10 µM | IC50 (BCL-2): < 10 µM | IC50 (MCL-1): < 10 µM

CC(=O)O[C@@H]1[C@@H](O)CN[C@@H]1Cc1ccc(-c2cn(-c3ccc(C(F)(F)F)cc3)nn2)cc1 [V187840]
IC50 (CCND1): < 10 µM | IC50 (MYC): < 10 µM | IC50 (BCL-2): < 10 µM | IC50 (MCL-1): < 10 µM

CC(=O)O[C@@H]1[C@@H](O)CN[C@@H]1Cc1ccc(-c2cn(Cc3cn[nH]c3)nn2)cc1 [V187844]
IC50 (CCND1): < 10 µM | IC50 (MYC): < 10 µM | IC50 (BCL-2): < 10 µM | IC50 (MCL-1): < 10 µM

CC(=O)O[C@@H]1[C@@H](O)CN[C@@H]1Cc1ccc(-c2nn[nH]c2Cl)cc1 [V187854]
IC50 (CCND1): < 10 µM | IC50 (MYC): < 10 µM | IC50 (BCL-2): < 10 µM | IC50 (MCL-1): < 10 µM

CC(=O)O[C@@H]1[C@@H](O)CN[C@@H]1Cc1ccc(-c2nnn(C)c2Cl)cc1 [V187855]
IC50 (CCND1): < 10 µM | IC50 (MYC): < 10 µM | IC50 (BCL-2): < 10 µM | IC50 (MCL-1): < 10 µM

CC(=O)O[C@@H]1[C@@H](O)CN[C@@H]1Cc1ccc(-c2nnn(Cc3ccccc3)c2Cl)cc1 [V187856]
IC50 (CCND1): < 10 µM | IC50 (MYC): < 10 µM | IC50 (BCL-2): < 10 µM | IC50 (MCL-1): < 10 µM

COc1ccc(C[C@H]2NC[C@H](O)[C@H]2OC(C)=O)cc1I [V188005]
IC50 (CCND1): > 30 µM | IC50 (MYC): > 30 µM | IC50 (BCL-2): > 30 µM | IC50 (MCL-1): > 30 µM
